pIC50: −log10 of the molar value.
Biological target: T1, human GnRH receptor (Homo sapiens, UniProt P30968)
T1 sequence (P30968 1-328): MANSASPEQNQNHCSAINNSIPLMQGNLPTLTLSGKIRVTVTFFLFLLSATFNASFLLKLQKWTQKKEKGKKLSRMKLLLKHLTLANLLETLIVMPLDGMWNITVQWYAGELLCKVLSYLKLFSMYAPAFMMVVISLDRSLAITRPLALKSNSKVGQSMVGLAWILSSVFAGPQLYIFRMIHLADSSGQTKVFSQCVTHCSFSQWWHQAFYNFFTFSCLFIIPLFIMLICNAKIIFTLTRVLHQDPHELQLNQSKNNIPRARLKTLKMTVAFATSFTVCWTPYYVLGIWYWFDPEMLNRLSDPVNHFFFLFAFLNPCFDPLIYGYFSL
Experiment: IP-One HTRF assay with buserelin (at EC80) stimulation
Type: cell-based
Details: CHO cells stably expressing human GnRH receptor, read-out: Potency in IP-One HTRF assay, given as IC50
Source text: 2.3. IP-One HTRF® Assay By using homogenous time-resolved fluorescence resonance energy transfer (HTRF), the generation of one component of the GnRH—R signalling cascade can be measured. After stimulation of CHO cells stably expressing human GnRH receptor (established by Prof. Thomas Gudermann, currently University of Marburg, Germany; supplied as frozen cell aliquots by Cell Culture Services, Hamburg, Germany) with the EC80 of the GnRH agonist buserelin, Gq protein-coupled receptor signalling cascade is activated resulting in PLC-dependent cleavage of PIP2 to Inositol-1,4,5-triphosphate (IP3) and Diacylglycerol. The second messenger IP3 is degraded intracellularly to myo-inositol. Inhibition of the final degradation step from Inositol-1-phosphate (IP1) to myo-inositol by addition of lithium chloride leads to accumulation of IP1 in the cells. In cell lysates, IP1 can be detected via an antibody-based HTRF detection technology, where IP1 can displace the FRET acceptor IP1-d2 from binding by Terbium-labelled anti-IP1 antibody as donor resulting in a signal decrease. Compounds were tested for their capability of inhibiting GnRH—R activation by buserelin. For all IP-One HTRF® assays reagents of Cisbio Bioassays (IP-One Tb Jumbo kit, #62IPAPEJ; Cisbio Bioassays, Bagnols sur Cèze Cedex, France) were used.
For the assay, frozen cell aliquots were thawed and a cell suspension (3.33×10^6 cells/mL) containing IP1-d2 (dilution 1:40) was prepared and incubated at 37° C. After 1 h 3 μl of the cell suspension were added to 50 nl of a 100-fold concentrated solution of the test compound in DMSO pre-dispensed in a well of a white low-volume 384-well microtiter plate (Greiner Bio-One, Frickenhausen, Germany). […] Plates were incubated for 1 h at 37° C. and 5% carbon dioxide before the cells were lysed by adding 3 μl Terbium-labelled anti-IP1 antibody (1:40) diluted in Conjugate & Lysis buffer as supplied with the kit. After an incubation for 1 h at 22° C. to enable complete cell lysis and antibody binding to free IP1 or IP1-d2, plates were measured in an HTRF reader, e.g. a RUBYstar, PHERAstar (both BMG Labtechnologies, Offenburg, Germany) or a Viewlux (PerkinElmer LAS, Rodgau-Jügesheim, Germany).
From the fluorescence emissions at 665 nm (FRET) and at 620 nm (background signal of Terbium-antibody), the ratio (emission at 665 nm divided by emission at 620 nm) was calculated and the data were normalized (reaction without test compound=0% inhibition; all other assay components except agonist=100% inhibition). On the same microtiter plate, compounds were tested at 10 different concentrations in the range of 20 μM to 1 nM (20 μM, 6.7 μM, 2.2 μM, 0.74 μM, 0.25 μM, 82 nM, 27 nM, 9.2 nM, 3.1 nM and 1 nM; dilution series prepared before the assay at the level of the 100-fold conc. stock solutions by serial 1:3 dilutions in 100% DMSO) in duplicate values for each concentration. By using an in-house software, the IC50 values were calculated by a 4 parameter fit.

Row | SMILES | pIC50
1 | CN(C)C(=NS(=O)(=O)c1cccc(NC(=O)c2ccc3c(c2)C2(CCS(=O)(=O)CC2)C(C2CC2)N3S(=O)(=O)c2ccc(F)cc2)c1)N(C)C (stereo not drawn) [Example 64, N-(3-{[bis(dimethylamino)methylidene]sulfamoyl}phenyl)-2-cyclopropyl-1-[(4-fluorophenyl)sulfonyl]-1,2,2′,3′,5′,6′-hexahydrospiro[indole-3,4′-thiopyran]-5-carboxamide 1′,1′-dioxide] | 8.03
2 | O=C(NCc1ncccc1Cl)c1ccc2c(c1)C1(CCS(=O)(=O)CC1)C(C1CC1)N2S(=O)(=O)c1ccc(F)cc1 (single isomer, unassigned) [Example 14.2, N-[(3-Chloropyridin-2-yl)methyl]-2-cyclopropyl-1-[(4-fluorophenyl)sulfonyl]-1,2,2′,3′,5′,6′-hexahydrospiro[indole-3,4′-thiopyran]-5-carboxamide 1′,1′-dioxide] | 5.27
3 | C=CCC1N(S(=O)(=O)c2cccc(C(=O)OC)c2)c2ccc(C(=O)NCc3ccccc3Cl)cc2C12CCS(=O)(=O)CC2 (stereo not drawn) [Example 54, methyl 3-({5-[N-(2-chlorobenzyl)carbamoyl]-1′,1′-dioxido-2-(prop-2-en-1-yl)-1,2,2′,3′,5′,6′-hexahydrospiro[indole-3,4′-thiopyran]-1-yl}sulfonyl)benzoate] | 7.04
4 | N#Cc1ccc(S(=O)(=O)N2c3ccc(C(=O)NCc4ccccc4C(F)(F)F)cc3C3(CCS(=O)(=O)CC3)C2C2CC2)cc1 (stereo not drawn) [Example 72, 1-[(4-cyanophenyl)sulfonyl]-2-cyclopropyl-N-[2-(trifluoromethyl)benzyl]-1,2,2′,3′,5′,6′-hexahydrospiro[indole-3,4′-thiopyran]-5-carboxamide 1′,1′-dioxide] | 7.89
5 | O=C(NCc1ccccc1Cl)c1ccc2c(c1)C1(CCSCC1)C(C1CC1)N2S(=O)(=O)c1ccc(F)cc1 (single isomer, unassigned) [Example 12.2, N-(2-Chlorobenzyl)-2-cyclopropyl-1-[(4-fluorophenyl)sulfonyl]-1,2,2′,3′,5′,6′-hexahydrospiro[indole-3,4′-thiopyran]-5-carboxamide] | 5.43
6 | Cc1cc(NS(=O)(=O)c2cccc(NC(=O)c3ccc4c(c3)C3(CCS(=O)(=O)CC3)C(C3CC3)N4S(=O)(=O)c3ccc(F)cc3)c2)no1 (stereo not drawn) [Example 66, 2-cyclopropyl-1-[(4-fluorophenyl)sulfonyl]-N-{3-[(5-methyl-1,2-oxazol-3-yl)sulfamoyl]phenyl}-1,2,2′,3′,5′,6′-hexahydrospiro[indole-3,4′-thiopyran]-5-carboxamide 1′,1′-dioxide] | 6.75
7 | N#Cc1cccc(S(=O)(=O)N2c3ccc(C(=O)NCc4ccccc4Cl)cc3C3(CCS(=O)(=O)CC3)C2C2CC2)c1 (single isomer, unassigned) [Example 76.2, N-(2-chlorobenzyl)-1-[(3-cyanophenyl)sulfonyl]-2-cyclopropyl-1,2,2′,3′,5′,6′-hexahydrospiro[indole-3,4′-thiopyran]-5-carboxamide 1′,1′-dioxide] | 6.16
8 | COC(=O)c1cccc(NC(=O)c2ccc3c(c2)C2(CCS(=O)(=O)CC2)C(C2CC2)N3S(=O)(=O)c2ccc(F)cc2)c1 (stereo not drawn) [Example 34, methyl 3-[({2-cyclopropyl-1-[(4-fluorophenyl)sulfonyl]-1′,1′-dioxido-1,2,2′,3′,5′,6′-hexahydrospiro[indole-3,4′-thiopyran]-5-yl}carbonyl)amino]benzoate] | 7.18
9 | COc1cccc(S(=O)(=O)N2c3ccc(C(=O)Nc4cccc(S(=O)(=O)N(C)C)c4)cc3C3(CCS(=O)(=O)CC3)C2C2CC2)c1 (single isomer, unassigned) [Example 43.2, 2-cyclopropyl-N-[3-(N,N-dimethylsulfamoyl)phenyl]-1-[(3-methoxyphenyl)sulfonyl]-1,2,2′,3′,5′,6′-hexahydrospiro[indole-3,4′-thiopyran]-5-carboxamide 1′,1′-dioxide] | 7.44
10 | O=C(NCC1CCCC1)c1ccc2c(c1)C1(CCS(=O)(=O)CC1)C(C1CC1)N2S(=O)(=O)c1ccc(F)cc1 (stereo not drawn) [Example 38, N-(cyclopentylmethyl)-2-cyclopropyl-1-[(4-fluorophenyl)sulfonyl]-1,2,2′,3′,5′,6′-hexahydrospiro[indole-3,4′-thiopyran]-5-carboxamide 1′,1′-dioxide] | 6.87
11 | O=C(NCc1ncc(F)cc1Cl)c1ccc2c(c1)C1(CCS(=O)(=O)CC1)C(C1CC1)N2S(=O)(=O)c1ccc(F)cc1 (single isomer, unassigned) [Example 17.2, N-[(3-chloro-5-fluoropyridin-2-yl)methyl]-2-cyclopropyl-1-[(4-fluorophenyl)sulfonyl]-1,2,2′,3′,5′,6′-hexahydrospiro[indole-3,4′-thiopyran]-5-carboxamide 1′,1′-dioxide] | 5.61
12 | CS(=O)(=O)c1cccc(NC(=O)c2ccc3c(c2)C2(CCS(=O)(=O)CC2)C(C2CC2)N3S(=O)(=O)c2ccc(F)cc2)c1 (single isomer, unassigned) [Example 23.1, 2-cyclopropyl-1-[(4-fluorophenyl)sulfonyl]-N-(3-mesylphenyl)-1,2,2′,3′,5′,6′-hexahydrospiro[indole-3,4′-thiopyran]-5-carboxamide 1′,1′-dioxide] | 5.73
13 | O=C(NCC1CC1)c1ccc2c(c1)C1(CCS(=O)(=O)CC1)C(C1CC1)N2S(=O)(=O)c1ccc(F)cc1 (single isomer, unassigned) [Example 35.1, 2-cyclopropyl-N-(cyclopropylmethyl)-1-[(4-fluorophenyl)sulfonyl]-1,2,2′,3′,5′,6′-hexahydrospiro[indole-3,4′-thiopyran]-5-carboxamide 1′,1′-dioxide] | 6.40
14 | NC(=O)c1cccc(NC(=O)c2ccc3c(c2)C2(CCS(=O)(=O)CC2)C(C2CC2)N3S(=O)(=O)c2ccc(F)cc2)c1 (single isomer, unassigned) [Example 51.2, N-(3-carbamoylphenyl)-2-cyclopropyl-1-[(4-fluorophenyl)sulfonyl]-1,2,2′,3′,5′,6′-hexahydrospiro[indole-3,4′-thiopyran]-5-carboxamide 1′,1′-dioxide] | 5.93
15 | COc1cccc(S(=O)(=O)N2c3ccc(C(=O)NCc4ccccc4C(F)(F)F)cc3C3(CCS(=O)(=O)CC3)C2C2CC2)c1 (stereo not drawn) [Example 40, 2-cyclopropyl-1-[(3-methoxyphenyl)sulfonyl]-N-[2-(trifluoromethyl)benzyl]-1,2,2′,3′,5′,6′-hexahydrospiro[indole-3,4′-thiopyran]-5-carboxamide 1′,1′-dioxide] | 7.49
16 | O=C(NCc1ccccc1Cl)c1ccc2c(c1)C1(CC[S+]([O-])CC1)C(C1CC1)N2S(=O)(=O)c1ccc(F)cc1 (single isomer, unassigned) [Example 13.2, N-(2-Chlorobenzyl)-2-cyclopropyl-1-[(4-fluorophenyl)sulfonyl]-1,2,2′,3′,5′,6′-hexahydrospiro[indole-3,4′-thiopyran]-5-carboxamide 1′-oxide] | 6.42
17 | COc1cccc(S(=O)(=O)N2c3ccc(C(=O)NCc4ncccc4Cl)cc3C3(CCS(=O)(=O)CC3)C2C2CC2)c1 (single isomer, unassigned) [Example 41.1, N-[(3-chloropyridin-2-yl)methyl]-2-cyclopropyl-1-[(3-methoxyphenyl)sulfonyl]-1,2,2′,3′,5′,6′-hexahydrospiro[indole-3,4′-thiopyran]-5-carboxamide 1′,1′-dioxide] | 6.99
18 | N#Cc1cccc(S(=O)(=O)N2c3ccc(C(=O)Nc4ccon4)cc3C3(CCS(=O)(=O)CC3)C2C2CC2)c1 (stereo not drawn) [Example 80, 1-[(3-cyanophenyl)sulfonyl]-2-cyclopropyl-N-(1,2-oxazol-3-yl)-1,2,2′,3′,5′,6′-hexahydrospiro[indole-3,4′-thiopyran]-5-carboxamide 1′,1′-dioxide] | 6.66

— patent US20140357655A1, “SPIROINDOLINE DERIVATIVES AS GONADOTROPIN- RELEASING HORMONE RECEPTOR ANTAGONISTS” (Bayer Intellectual Property GmbH, priority 2012, published 2014)
